We go through 7 compounds from patent US9452992B2 (priority 2011, dated 2016).

“Also recorded” adds a separate entry of the source. A value given as a limit tells only on which side of the number the result lay.

Assay [1] relates to EboV. Further details: species or system Ebola virus.
In assay [2] the test system is VSV particles pseudotyped with EboV Zaire GP. It is filed as cell-based, Ebola virus Zaire.
For assay [3], the system named is VSV particles pseudotyped with VSV G. It is filed as cell-based, vesicular stomatitis virus.
The test system of assay [4] is EBOV Zaire-1995. It is filed as cell-based, Ebola virus Zaire. Conditions: 96 h.
Assay [5] deals with cathepsin B (Homo sapiens, UniProt P07858). It is filed as biochemical.
Assay [6] has as its system thermolysin-cleaved VSV EboV GP particles. It is filed as cell-based, Ebola virus Zaire.
Assay [7] has as its system HeLa cells. It is filed as cell-based, human.
Assay [8] has as its target binding of cleaved EboV GPΔTM to NPC1 membranes (Mus musculus, UniProt O35604).
For assay [9], the target named is T1, NPC1 (Homo sapiens, UniProt O15118).
T1 construct: expressed in transfected cells; host or cells: CHO/NPC1-1 (CHOhNPC1) cells; 15,000 g membrane pellet
T1 sequence (O15118 23-1278): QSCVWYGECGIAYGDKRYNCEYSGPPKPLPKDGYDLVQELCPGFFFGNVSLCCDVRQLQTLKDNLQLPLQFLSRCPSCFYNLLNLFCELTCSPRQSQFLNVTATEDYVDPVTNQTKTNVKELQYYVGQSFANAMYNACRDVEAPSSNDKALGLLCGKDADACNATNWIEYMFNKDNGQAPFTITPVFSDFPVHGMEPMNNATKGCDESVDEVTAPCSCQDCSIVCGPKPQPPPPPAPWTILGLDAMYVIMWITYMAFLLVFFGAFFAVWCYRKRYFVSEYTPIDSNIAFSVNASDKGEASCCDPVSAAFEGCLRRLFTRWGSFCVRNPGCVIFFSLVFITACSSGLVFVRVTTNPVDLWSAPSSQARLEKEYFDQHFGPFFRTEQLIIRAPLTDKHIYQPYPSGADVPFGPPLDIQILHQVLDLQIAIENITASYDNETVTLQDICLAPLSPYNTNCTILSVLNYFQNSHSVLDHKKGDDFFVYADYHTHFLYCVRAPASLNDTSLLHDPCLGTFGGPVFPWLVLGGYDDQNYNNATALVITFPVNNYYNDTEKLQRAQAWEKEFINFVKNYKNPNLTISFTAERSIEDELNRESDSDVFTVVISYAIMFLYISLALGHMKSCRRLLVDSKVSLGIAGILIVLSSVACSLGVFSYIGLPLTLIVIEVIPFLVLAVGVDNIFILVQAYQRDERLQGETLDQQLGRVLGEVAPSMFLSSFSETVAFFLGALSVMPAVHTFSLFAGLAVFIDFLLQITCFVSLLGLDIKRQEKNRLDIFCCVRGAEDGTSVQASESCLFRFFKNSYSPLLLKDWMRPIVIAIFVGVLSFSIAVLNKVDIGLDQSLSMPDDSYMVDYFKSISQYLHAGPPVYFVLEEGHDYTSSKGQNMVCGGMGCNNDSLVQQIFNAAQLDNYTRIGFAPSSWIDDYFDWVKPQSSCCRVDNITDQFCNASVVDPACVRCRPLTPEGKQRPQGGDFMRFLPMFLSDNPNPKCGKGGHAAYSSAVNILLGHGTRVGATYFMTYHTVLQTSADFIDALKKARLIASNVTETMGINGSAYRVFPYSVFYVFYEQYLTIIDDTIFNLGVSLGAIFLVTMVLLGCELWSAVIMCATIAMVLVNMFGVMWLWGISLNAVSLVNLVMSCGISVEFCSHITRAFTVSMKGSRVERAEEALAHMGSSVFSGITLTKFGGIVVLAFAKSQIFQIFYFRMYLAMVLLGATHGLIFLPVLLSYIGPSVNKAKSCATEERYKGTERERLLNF
It is filed as binding.

Assay [10] deals with Ebola virus Zaire-Maying a encoding GFP. It is filed as cell-based.

Chain of binding of cleaved EboV GPΔTM to NPC1 membranes (O35604 23-1277 limits assumed, stated change not applied): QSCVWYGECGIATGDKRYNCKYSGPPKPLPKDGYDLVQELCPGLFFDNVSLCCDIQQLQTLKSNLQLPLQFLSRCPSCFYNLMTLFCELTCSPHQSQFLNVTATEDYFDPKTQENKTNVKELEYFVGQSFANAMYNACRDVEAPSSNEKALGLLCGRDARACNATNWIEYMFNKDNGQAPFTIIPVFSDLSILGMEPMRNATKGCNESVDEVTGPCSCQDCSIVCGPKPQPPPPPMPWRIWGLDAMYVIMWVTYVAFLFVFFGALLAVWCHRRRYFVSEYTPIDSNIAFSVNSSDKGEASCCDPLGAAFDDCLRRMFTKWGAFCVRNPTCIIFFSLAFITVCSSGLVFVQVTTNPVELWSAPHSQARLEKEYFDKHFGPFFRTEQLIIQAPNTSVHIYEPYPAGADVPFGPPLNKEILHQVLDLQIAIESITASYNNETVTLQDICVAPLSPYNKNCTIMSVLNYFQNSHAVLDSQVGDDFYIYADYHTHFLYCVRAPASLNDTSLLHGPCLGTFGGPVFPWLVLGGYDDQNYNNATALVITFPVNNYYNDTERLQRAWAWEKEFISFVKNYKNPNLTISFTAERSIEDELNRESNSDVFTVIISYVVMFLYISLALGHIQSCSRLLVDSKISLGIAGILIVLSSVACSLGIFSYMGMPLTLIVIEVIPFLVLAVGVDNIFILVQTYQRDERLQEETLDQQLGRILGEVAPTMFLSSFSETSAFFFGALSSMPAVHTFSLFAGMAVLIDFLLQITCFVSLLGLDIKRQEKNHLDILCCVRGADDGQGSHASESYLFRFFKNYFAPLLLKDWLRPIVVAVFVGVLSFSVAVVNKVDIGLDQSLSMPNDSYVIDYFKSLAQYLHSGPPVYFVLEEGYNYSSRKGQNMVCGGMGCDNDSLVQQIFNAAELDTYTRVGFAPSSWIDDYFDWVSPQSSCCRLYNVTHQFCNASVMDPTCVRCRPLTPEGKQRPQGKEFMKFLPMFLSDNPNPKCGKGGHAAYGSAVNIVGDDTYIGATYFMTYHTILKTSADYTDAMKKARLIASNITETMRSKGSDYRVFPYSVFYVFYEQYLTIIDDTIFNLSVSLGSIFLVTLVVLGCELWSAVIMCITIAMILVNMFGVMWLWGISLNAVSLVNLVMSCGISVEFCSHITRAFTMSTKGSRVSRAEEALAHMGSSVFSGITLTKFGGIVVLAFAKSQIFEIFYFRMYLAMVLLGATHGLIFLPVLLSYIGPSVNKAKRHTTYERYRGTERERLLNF

For the compound `CCCCc1oc2ccccc2c1C(=O)c1cc(I)c(OCCN(CC)CC)c(I)c1` [amiodarone], in assay [1], the anti-EboV activity result is on record as “weak anti-EboV activity”.
As to `O=C(CC12CC3CC(CC(C3)C1)C2)NCC(=O)N1CCN(Cc2ccccc2)CC1` [3.0, 2-((3r,5r,7r)-adamantan-1-yl)-N-(2-(4-benzylpiperazin-1-yl)-2-oxoethyl)acetamide], in assay [2], the “inhibition of EboV GP infection in the screen” value was “more than 80%” and the “inhibition of EboV GP-dependent infection of Vero cells” value is reported as “inhibits infection”. Besides, the “inhibition of VSV G-dependent infection of Vero cells” value in assay [3] is recorded as “not”. Besides, in assay [4], the “reduction of EboV growth on Vero cells” value was above 99%. The “effect on cathepsin B activity” value in assay [5] is on record as “no effect was observed”. The “inhibition of infection by thermolysin-treated VSV EboV particles” value in [6] is on record as “inhibited infection”. Further, in assay [7], the “cholesterol uptake from LE/LY into cells” value was “inhibit cholesterol uptake” and the “induction of filipin-labelled cytoplasmic vacuoles” value was “developed cytoplasmic vacuoles”. In [8], the “inhibition of binding of cleaved EboV GPΔTM to NPC1 membranes” value is “inhibited binding”.
With `COc1ccc([C@@H]2Sc3ccccc3N(CCN(C)C)C(=O)[C@@H]2OC(C)=O)cc1` [diltiazen], the anti-EboV activity result in assay [1] is on record as “weak anti-EboV activity”.
Take `C#Cc1ccc(COc2ccc(N=[N+]=[N-])cc2CN2CCN(C(=O)CNC(=O)CC34CC5CC(CC(C5)C3)C4)CC2)cc1` [compound 3.105, 2-((3r,5r,7r)-adamantan-1-yl)-N-(2-(4-(5-azido-2-((4-ethynylbenzyl)oxy)benzyl)piperazin-1-yl)-2-oxoethyl)acetamide]: the “inhibition of EboV GP-dependent infection of Vero cells” value in [2] is listed as “has anti-EboV activity”. Further, the “cross-linking to NPC1” value in assay [9] is given as “cross-linked”.
For `CCN(CC)CCO[C@H]1CC[C@@]2(C)C(=CC[C@@H]3[C@@H]2CC[C@]2(C)C(=O)CC[C@@H]32)C1` [U18666A, reference compound], the “inhibition of binding of cleaved EboV GPΔTM to NPC1 membranes” value in assay [8] is recorded as “does not inhibit binding”.
Turning to `COC(=O)c1ccc(COc2ccccc2CN2CCN(C(=O)CNC(=O)CC34CC5CC(CC(C5)C3)C4)CC2)cc1` [compound 3.48, methyl 4-((2-((4-(2-(2-((3r,5r,7r)-adamantan-1-yl)acetamido)acetyl)piperazin-1-yl)methyl)phenoxy)methyl)benzoate], the “potency as measured by a single cycle of EboV GP-dependent infection, relative to 3.0” value in assay [2] is on record as “increased the potency”. Moreover, the “efficacy as measured by growth of EboV on Vero cells, relative to 3.0” value in [10] is reported as “increased”. Further, the “effect on cathepsin B activity” value in assay [5] was “no effect was observed”. The “inhibition of infection by thermolysin-treated VSV EboV particles” value in assay [6] was “inhibited infection”. For the same compound, in [7], the “cholesterol uptake from LE/LY into cells” value was “inhibit cholesterol uptake” and the “induction of filipin-labelled cytoplasmic vacuoles” value is reported as “developed cytoplasmic vacuoles”. For the same compound, the “inhibition of cross-linking of 3.105 to NPC1” value in assay [9] is recorded as “inhibited”. For the same compound, the “inhibition of binding of cleaved EboV GPΔTM to NPC1 membranes” value in assay [8] was “blocked; also recorded: inhibited binding”.
`CC/C(=C(\c1ccccc1)c1ccc(OCCN(C)C)cc1)c1ccccc1` [tamoxifen]: the anti-EboV activity entry in [1] is reported as “weak anti-EboV activity”.
